Data from article PMC9468151, “Identification of a binding site on soluble RANKL that can be targeted to inhibit soluble RANK-RANKL interactions and treat osteoporosis” (Nature Communications, 2022).

Test system: NF-κB, MAPK and PI3K-AKT signaling
Assay: Western blotting of RANKL-RANK signaling in RAW264.7 cells
Format: cell-based, mouse
Details: RAW264.7, 5 μM
Procedure: The mRNA expression level of S3-15 was measured by RT–qPCR as primary described. Total cellular RNA sample was prepared using RNAiso Plus, followed by reverse transcription with PrimeScript™ MixRT Master Mix reverse transcriptase kit. Then quantitative real-time PCR assays were performed with TB Green™ premix EX Taq™ II kit on an Applied Biosystems. […] signaling inhibiting effect was determined by western blotting. RAW264.7 cells were treated with 5 μM S3-15 with or without sRANKL (100 ng/mL) for 5, 10, 30 and 60 min after starved for 1 h. Then the cells were washed with cold PBS and lysed by RIPA Lysis Buffer. Cell lysates were then processed for Western Blotting analyses. Primary antibody binding was detected using rat secondary antibodies (1:5000) coupled with enhanced chemiluminescence (ECL) reagents (Thermo Scientific) and visualized on Tanon 5200. Primers used for qPCR and antibodies used for western blotting were seen supplementary materials for details.

Compound: CC(=O)/C(=N\Nc1ccccc1C(=O)O)C(=O)Nc1ccccn1 [S3-15]
- MAPK signaling (phosphorylation of ERK, JNK, p38): abrogated MAPK signaling
- PI3K-AKT signaling (phosphorylation of PI3K, AKT): reduced PI3K-AKT signaling
- RANKL-induced NF-κB signaling (phosphorylation of IKKα, IκBα, p65): suppresses RANKL-induced NF-κB signaling
